From patent publication US4820694A, “Modifications of 3-O-demethylmycinose in macrocin and lactenocin” (priority 1986, dated 1989)
In brackets after ≈: the same amount, converted by molar mass. Where two headings read alike, the source gives them in different places.

Tests used:
[1] = system: Staphylococcus aureus S13E; assay: microbe, parasite or virus in culture; type: cell-based; conditions: Staphylococcus aureus, S13E
Protocol: (§1) The MIC's in Table III were determined by standard agar-dilution assays. The MIC's in Table IV were obtained using conventional brothdilution microtiter tests.

[2] = system: Streptococcus pneumoniae Park I; assay: microbe, parasite or virus in culture; type: cell-based; conditions: Streptococcus pneumoniae
Protocol: as §1

[3] = system: Pasteurella multocida; assay: Pasteurella multocida infection in one-day-old chicks; type: in vivo; conditions: subcutaneously, 30 mg/kg × 2, 1 and 4 hours post-challenge
Protocol: Some of the formula 1 compounds have also shown in vivo antibacterial activity against infections induced by Gram-negative bacteria. Table VI summarizes the results of tests in which illustrative compounds were evaluated against a Pasteurella infection in one-day-old chicks. The compounds were administered by subcutaneous injection at a dosage of 30 mg/kg, 1 and 4 hours post-challenge of the chicks with Pasteurella multocida (0.1 ml of a 10^-4 dilution of a twenty-hour tryptose broth culture of an avian P. multocida given subcutaneously). In these tests, unless indicated otherwise, all non-medicated infected chicks died within 24 hours of Pasteurella challenge.
^a Administered subcutaneously; 30 mg/kg × 2

[4] = system: Staphylococcus aureus 19C; assay: broth-dilution microtiter MIC test; type: cell-based; conditions: Staphylococcus aureus, 19C
Protocol: as §1

[5] = system: Mycoplasma hyorhinis 29E; assay: broth-dilution microtiter MIC test; type: cell-based; conditions: Mycoplasma, 29E
Protocol: as §1

[6] = system: Pasteurella hemolytica 41D; assay: broth-dilution microtiter MIC test; type: cell-based; conditions: Pasteurella, 41D
Protocol: as §1

[7] = system: Mycoplasma gallisepticum 29C; assay: broth-dilution microtiter MIC test; type: cell-based; conditions: Mycoplasmoides gallisepticum, 29C
Protocol: as §1

[8] = system: Streptococcus sp. 19F; assay: broth-dilution microtiter MIC test; type: cell-based; conditions: Streptococcus, SP.19F
Protocol: as §1

[9] = system: Pasteurella multocida 22A; assay: broth-dilution microtiter MIC test; type: cell-based; conditions: Pasteurella multocida, 22A
Protocol: as §1

[10] = system: Bordetella bronchiseptica; assay: broth-dilution microtiter MIC test; type: cell-based; conditions: Bordetella bronchiseptica
Protocol: as §1

[11] = system: Pasteurella multocida 40G; assay: broth-dilution microtiter MIC test; type: cell-based; conditions: Pasteurella multocida, 40G
Protocol: as §1

[12] = system: Pasteurella multocida 17E; assay: broth-dilution microtiter MIC test; type: cell-based; conditions: Pasteurella multocida, 17E
Protocol: as §1

[13] = system: Pasteurella hemolytica 23C; assay: broth-dilution microtiter MIC test; type: cell-based; conditions: Pasteurella, 23C
Protocol: as §1

[14] = system: Pasteurella hemolytica 22C; assay: broth-dilution microtiter MIC test; type: cell-based; conditions: Pasteurella, 22C
Protocol: as §1

[15] = system: Mycoplasma gallisepticum 15E; assay: broth-dilution microtiter MIC test; type: cell-based; conditions: Mycoplasmoides gallisepticum, 15E
Protocol: as §1

[16] = system: Pasteurella multocida 68C; assay: broth-dilution microtiter MIC test; type: cell-based; conditions: Pasteurella multocida, 68C
Protocol: as §1

[17] = system: Pasteurella multocida 60A; assay: broth-dilution microtiter MIC test; type: cell-based; conditions: Pasteurella multocida, 60A
Protocol: as §1

[18] = system: Mycoplasma gallisepticum 36H; assay: broth-dilution microtiter MIC test; type: cell-based; conditions: Mycoplasmoides gallisepticum, 36H
Protocol: as §1

[19] = system: Mycoplasma synoviae 40A; assay: broth-dilution microtiter MIC test; type: cell-based; conditions: Mycoplasmopsis synoviae, 40A
Protocol: as §1

[20] = system: Streptococcus Group D 9960; assay: standard agar-dilution MIC assay; type: cell-based; conditions: GROUPD9960, read-out: MIC
Protocol: as §1

[21] = system: Klebsiella pneumoniae X68; assay: standard agar-dilution MIC assay; type: cell-based; conditions: Klebsiella pneumoniae, X68
Protocol: as §1

[22] = system: Staphylococcus epidermidis EPI1; assay: standard agar-dilution MIC assay; type: cell-based; conditions: Staphylococcus epidermidis, EPI1
Protocol: as §1

[23] = system: Staphylococcus aureus X400; assay: standard agar-dilution MIC assay; type: cell-based; conditions: Staphylococcus aureus, X400
Protocol: as §1

[24] = system: Pseudomonas aeruginosa X239; assay: standard agar-dilution MIC assay; type: cell-based; conditions: Pseudomonas aeruginosa, X239
Protocol: as §1

[25] = system: Staphylococcus epidermidis EP12; assay: standard agar-dilution MIC assay; type: cell-based
Protocol: as §1

[26] = system: Staphylococcus aureus V41; assay: standard agar-dilution MIC assay; type: cell-based; conditions: Staphylococcus aureus, V41
Protocol: as §1

[27] = system: Streptococcus pyogenes C203; assay: standard agar-dilution MIC assay; type: cell-based; conditions: Streptococcus pyogenes, C203
Protocol: as §1

[28] = system: Staphylococcus aureus X1.1; assay: standard agar-dilution MIC assay; type: cell-based; conditions: Staphylococcus aureus, X1.1
Protocol: as §1

[29] = system: Streptococcus Group D X66; assay: standard agar-dilution MIC assay; type: cell-based; conditions: read-out: MIC
Protocol: as §1

[30] = system: Escherichia coli EC14; assay: standard agar-dilution MIC assay; type: cell-based
Protocol: as §1

[31] = system: Streptococcus pyogenes C203; assay: protection of mice experimentally infected with S. pyogenes C203; type: in vivo; conditions: C203, sc, Subcutaneous, mice, mg/kg × 2, doses given 1 and 4 hours postinfection, read-out: ED50
Summary of the method: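 Mice experimentally infected with S. pyogenes C203 got two doses of test compound, at 1 and 4 h postinfection. The ED50 is the dose in mg/kg (per dose, given twice) that protected 50% of the animals.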

[32] = system: Haemophilus influenzae 76; assay: standard agar-dilution MIC assay; type: cell-based; conditions: Haemophilus influenzae, 76; agar-dilution; Ampicillin-resistant strain; read-out: MIC
Protocol: as §1

[33] = system: Haemophilus influenzae C.L.; assay: standard agar-dilution MIC assay; type: cell-based; conditions: Haemophilus influenzae; agar-dilution; Ampicillin-sensitive strain; read-out: MIC
Protocol: as §1

[34] = broth-dilution microtiter, read-out: MIC

## CCC1OC(=O)CC(O)C(C)C(OC2OC(C)C(O)C(N(C)C)C2OC(C)=O)C(CC=O)CC(C)C(=O)C=CC(C)=CC1COC1OC(C)C(OC(=O)Cc2ccccc2)C(O)C1OC (centres unmarked) [Compound 29, 2'-O-Acetyl-4"-O-phenylacetyl-lactenocin]
[1]
  MIC: 1 µg/mL (≈ 1.09 µM)
[2]
  MIC: 0.25 µg/mL (≈ 0.272 µM)
[3]
  Number of Deaths/Number Treated: 9/10
[4]
  MIC: 1.56 µg/mL (≈ 1.7 µM)
[5]
  MIC: 1.56 µg/mL (≈ 1.7 µM)
[6]
  MIC: 12.5 µg/mL (≈ 13.6 µM)
[7]
  MIC: 0.195 µg/mL (≈ 0.212 µM)
[8]
  MIC: 0.39 µg/mL (≈ 0.425 µM)
[9]
  MIC: 25 µg/mL (≈ 27.2 µM)
[10]
  MIC: > 50 µg/mL
[11]
  MIC: 25 µg/mL (≈ 27.2 µM)
[12]
  MIC: 12.5 µg/mL (≈ 13.6 µM)
[13]
  MIC: 12.5 µg/mL (≈ 13.6 µM)
[14]
  MIC: 12.5 µg/mL (≈ 13.6 µM)
[15]
  MIC: 12.5 µg/mL (≈ 13.6 µM)
[16]
  MIC: 6.25 µg/mL (≈ 6.81 µM)
[17]
  MIC: 25 µg/mL (≈ 27.2 µM)
[18]
  MIC: 6.25 µg/mL (≈ 6.81 µM)
[19]
  MIC: 0.195 µg/mL (≈ 0.212 µM)
[20]
  MIC: 1 µg/mL (≈ 1.09 µM)
[21]
  MIC: > 128 µg/mL
[22]
  MIC: 1 µg/mL (≈ 1.09 µM)
[23]
  MIC: 1 µg/mL (≈ 1.09 µM)
[24]
  MIC: > 128 µg/mL
[25]
  MIC: 1 µg/mL (≈ 1.09 µM)
[26]
  MIC: 1 µg/mL (≈ 1.09 µM)
[27]
  MIC: 0.5 µg/mL (≈ 0.545 µM)
[28]
  MIC: 1 µg/mL (≈ 1.09 µM)
[29]
  MIC: 1 µg/mL (≈ 1.09 µM)
[30]
  MIC: > 128 µg/mL

## CCC1OC(=O)CC(O)C(C)C(OC2OC(C)C(O)C(N(C)C)C2OC(C)=O)C(CC=O)CC(C)C(=O)C=CC(C)=CC1COC1OC(C)C(OC(=O)COc2ccccc2)C(O)C1OC (centres unmarked) [Compound 33, 2'-O-Acetyl-4"-O-phenoxyacetyl-lactenocin]
[31]
  ED50: 1.9 mg/kg
[1]
  MIC: 1 µg/mL (≈ 1.07 µM)
[2]; agar-dilution, read-out: MIC
  MIC: 0.25 µg/mL (≈ 0.268 µM)
[3]
  Number of Deaths/Number Treated: 8/10
[4]
  MIC: 0.78 µg/mL (≈ 0.835 µM)
[5]
  MIC: 3.12 µg/mL (≈ 3.34 µM)
[6]; [34]
  MIC: 12.5 µg/mL (≈ 13.4 µM)
[7]; [34]
  MIC: 0.39 µg/mL (≈ 0.418 µM)
[8]; [34]
  MIC: 0.39 µg/mL (≈ 0.418 µM)
[9]; [34]
  MIC: 12.5 µg/mL (≈ 13.4 µM)
[10]
  MIC: 50 µg/mL (≈ 53.5 µM)
[11]; [34]
  MIC: 12.5 µg/mL (≈ 13.4 µM)
[12]; broth-dilution microtiter, Bovine isolate, read-out: MIC
  MIC: 12.5 µg/mL (≈ 13.4 µM)
[13]; [34]
  MIC: 12.5 µg/mL (≈ 13.4 µM)
[14]; [34]
  MIC: 12.5 µg/mL (≈ 13.4 µM)
[15]; [34]
  MIC: 12.5 µg/mL (≈ 13.4 µM)
[16]; [34]
  MIC: 6.25 µg/mL (≈ 6.69 µM)
[17]; broth-dilution microtiter, Avian isolate, read-out: MIC
  MIC: 6.25 µg/mL (≈ 6.69 µM)
[18]; [34]
  MIC: 12.5 µg/mL (≈ 13.4 µM)
[19]; [34]
  MIC: 0.39 µg/mL (≈ 0.418 µM)
[20]
  MIC: 1 µg/mL (≈ 1.07 µM)
[21]; agar-dilution, read-out: MIC
  MIC: > 128 µg/mL
[32]
  MIC: 8 µg/mL (≈ 8.56 µM)
[22]
  MIC: 1 µg/mL (≈ 1.07 µM)
[23]; agar-dilution, Methicillin-resistant strain, read-out: MIC
  MIC: 2 µg/mL (≈ 2.14 µM)
[24]; agar-dilution, read-out: MIC
  MIC: > 128 µg/mL
[26]
  MIC: 1 µg/mL (≈ 1.07 µM)
[27]
  MIC: 0.5 µg/mL (≈ 0.535 µM)
[28]
  MIC: 1 µg/mL (≈ 1.07 µM)
[33]
  MIC: 8 µg/mL (≈ 8.56 µM)
[29]
  MIC: 1 µg/mL (≈ 1.07 µM)
[30]; agar-dilution, read-out: MIC
  MIC: > 128 µg/mL
